# Measurements: patent US11649233B2, “Halo-allylamine SSAO/VAP-1 inhibitor and use thereof” (Nanjing Transthera Biosciences Co., Ltd., priority 2017, dated 2023)
# pIC50: −log10 of the molar value. Where a name gives a salt, the structure may show the parent alone.
# How the values were obtained:
# MAO-B = MAO-B (Homo sapiens (Human), UniProt P27338); experiment: Selectivity of the compounds for MAO-B enzyme (MAO-Glo); assay type: biochemical; conditions: 60 minutes pre-incubation at 37° C.
# Description: (§1) 2. Selectivity of the Compounds for MAO-A/B Enzymes
# (§2) Microplate reader (Perkin Elmer, Envision), 384 well plates (Perkin Elmer), centrifuge (Eppendorf), MAO-Glo™ (Promega), MAO-A (Active Motif) and MAO-B (Active Motif).
# (§3) An appropriate amount of the test compound was dissolved in DMSO to 10 mM and stored. Before the experiment, an appropriate amount of 10 mM test compound mother liquor was diluted to 100 μM solution with DMSO. Then 4-fold gradient dilution with DMSO was performed, and 6 concentration gradients were formed.
# (§4) The MAO-A/B mother liquor was diluted to 2×concentration enzyme solution with the assay buffer solution for the MAO-A/B.
# (§5) The mother liquor of the MAO-A/B substrate mixed solution was diluted to 2×concentration substrate mixed solution with the assay buffer solution for the MAO-A/B.
# (§6) 200 nL of compound solutions of different concentrations or solvent
# (§7) and 10 μL of 2×MAO-A/B enzyme solution were added to a 384-well plate, evenly mixed by oscillation, and incubated at 37° C. for 60 minutes. Then 10 μL of 2×substrate mixed solution was added to each well, and immediately the detection was performed with the microplate reader in a condition of an exciting light at 535 nm, an emitting light at 587 nm, the fluorescence intensity for detecting each well of 5 minutes/run, and a total detection time of 25 minutes.
# (§8) The inhibition rate was calculated according to the following formula: V(RFU/min)=(Ft(RFU)−F0(RFU))/(Time(min)) Inhibition rate (%)=100%−Vcmpd(RFU/min)/V max(RFU/min)×100%
# (§9) V: the fluorescence change rate; Ft: fluorescence reading at the time point t; F0: fluorescence reading at the time point 0; Time: time period t; Vcmpd: the fluorescence change rate of the test compound; Vmax: the Max well fluorescence change rate.
# (§10) The log values of the concentrations were taken as the X-axis and the percent inhibition rates were taken as the Y-axis, and the dose-effect curve was fitted using the log(inhibitor) vs. response-Variable slope of the analytical software GraphPad Prism 5 to obtain the IC50 value of each compound for enzyme activity.
# [1] = In vitro stability test in the dog plasma; assay type: in vitro ADME; conditions: Beagle dog plasma, 37° C., 2 hours, 0.2 μM
# Description: Biological Example 2: In Vitro Stability Test of the Compound of the Present Invention in the Dog Plasma
# Test compound: about 2 mg of test compound was prepared with DMSO into a 5 mM stock solution, then diluted with DMSO to 1 mM solution, and finally diluted with water to 50 μM test compound working solution for use.
# Termination solution: about 2 mg of tolbutamide compound was firstly prepared with DMSO into a 1 mg/mL stock solution, finally diluted with acetonitrile to 100 ng/mL termination solution, and stored at 4° C. for later use.
# (1) Frozen Beagle dog plasma was pre-incubated and thawed in a 37° C. water bath constant temperature oscillator for use.
# (2) 10 μL of test compound (10 μM) was added to 490M (Beagle dog plasma, final concentration of the test substance was 0.2 μM, two duplicate samples.
# (3) The sample was evenly mixed in vortex and incubated in a 37° C. water bath constant temperature oscillator.
# (4) At the corresponding time points (T=0 h, 0.5 h, 1 h, 2 h; sample at 0 h was not incubated), 400 μL of the termination solution was added to 40 μL of the reaction solution obtained by reacting the test compound of step (2) and the components in the blood plasma, and the resulting mixture was evenly mixed and frozen at −80° C. for storage. […]
# rhVAP-1 = rhVAP-1 (Homo sapiens (Human), UniProt Q16853); experiment: Inhibition activity of the compounds on the rhVAP-1 enzyme (Amplex Red/HRP fluorescence, benzylamine substrate); assay type: biochemical; conditions: 30 minutes pre-incubation at 37° C.
# rhVAP-1, sequence (Q16853 whole entry): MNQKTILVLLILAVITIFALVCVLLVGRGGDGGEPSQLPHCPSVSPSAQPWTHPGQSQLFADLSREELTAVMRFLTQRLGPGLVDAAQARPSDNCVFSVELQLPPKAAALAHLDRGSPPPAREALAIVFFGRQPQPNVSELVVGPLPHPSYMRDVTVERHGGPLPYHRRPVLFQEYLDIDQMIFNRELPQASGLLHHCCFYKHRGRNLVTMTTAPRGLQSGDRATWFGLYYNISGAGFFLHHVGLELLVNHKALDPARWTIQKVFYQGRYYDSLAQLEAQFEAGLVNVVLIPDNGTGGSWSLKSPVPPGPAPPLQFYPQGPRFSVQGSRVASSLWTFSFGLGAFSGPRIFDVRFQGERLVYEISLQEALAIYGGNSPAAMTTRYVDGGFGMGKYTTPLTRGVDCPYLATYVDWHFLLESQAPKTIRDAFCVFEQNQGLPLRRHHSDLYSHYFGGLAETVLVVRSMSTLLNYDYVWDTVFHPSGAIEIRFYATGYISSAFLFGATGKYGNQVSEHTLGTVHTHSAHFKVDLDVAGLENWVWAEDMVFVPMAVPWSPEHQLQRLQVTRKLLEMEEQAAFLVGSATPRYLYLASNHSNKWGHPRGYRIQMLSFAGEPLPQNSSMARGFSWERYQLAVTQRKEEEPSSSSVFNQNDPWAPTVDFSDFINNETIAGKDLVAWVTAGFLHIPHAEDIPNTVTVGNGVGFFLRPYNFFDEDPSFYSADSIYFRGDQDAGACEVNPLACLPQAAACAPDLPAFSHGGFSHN
# Description: 1. Inhibition Activity of the Compounds on the rhVAP-1 Enzyme
# Multifunctional microplate reader (MD, FlexStation 3), black bottom-impermeable 96-well plate (Corning), rhVAP-1 (PeproTech)
# as §3, with “10” for “100”, “3-fold” for “4-fold”, “10” for “6”
# An appropriate amount of protein diluent was added to the rhVAP-1 powder to obtain 1 mg/mL of the mother liquor for storage. Before the experiment, the dilution with PBS provided a 4×concentration of the enzyme solution.
# An appropriate amount of benzylamine was added to PBS and dissolved to obtain 200 mM of the benzylamine solution. 2 mM Amplex Red mother liquor and 500 U/mL HRP mother liquor were added. The dilution with PBS provided 2×concentration substrate mixed solution.
# First, 10 μL of compound solutions of different concentrations, 25 μL of 4×rhVAP-1 enzyme solution and 15 μL of PBS were added to a 96-well plate, evenly mixed by oscillation, and incubated at 37° C. for 30 minutes. Then 50 μL of 2×substrate mixed solution was added to each well, and immediately the detection was performed with the microplate reader in a condition of an exciting light at 565 nm, an emitting light at 590 nm, the fluorescence intensity for detecting each well of 5 minutes/run, and a total detection time of 25 minutes. The inhibition rate was calculated according to the following formula: V(RFU/min)=(Ft(RFU)−F0(RFU))/(Time(min)) Inhibition rate (%)=100%−Vcmpd(RFU/min)/V max(RFU/min)×100%
# as §9, §10
# MAO-A = MAO-A (Homo sapiens (Human), UniProt P21397); experiment: Selectivity of the compounds for MAO-A enzyme (MAO-Glo); assay type: biochemical; conditions: 60 minutes pre-incubation at 37° C.
# MAO-A, sequence (P21397 whole entry): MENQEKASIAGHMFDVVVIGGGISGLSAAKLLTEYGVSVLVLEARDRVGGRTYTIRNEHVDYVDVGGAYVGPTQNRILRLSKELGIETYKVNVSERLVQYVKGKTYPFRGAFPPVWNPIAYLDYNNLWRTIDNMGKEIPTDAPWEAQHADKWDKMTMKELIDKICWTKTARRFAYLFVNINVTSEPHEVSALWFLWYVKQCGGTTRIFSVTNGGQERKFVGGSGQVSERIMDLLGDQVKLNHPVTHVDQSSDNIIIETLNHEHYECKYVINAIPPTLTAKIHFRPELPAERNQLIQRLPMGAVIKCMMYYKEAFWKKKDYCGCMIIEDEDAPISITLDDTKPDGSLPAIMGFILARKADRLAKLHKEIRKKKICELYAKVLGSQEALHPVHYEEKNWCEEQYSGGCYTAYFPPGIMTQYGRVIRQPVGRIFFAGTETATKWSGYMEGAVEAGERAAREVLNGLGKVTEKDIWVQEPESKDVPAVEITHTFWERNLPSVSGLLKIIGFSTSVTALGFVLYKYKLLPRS
# Description: as §1, §2, §3, §4, §5, §6, §7, §8, §9, §10
# [2] = Stability test in human liver microsome; assay type: in vitro ADME; conditions: human liver microsome 0.5 mg protein/mL, compound 1 μM, β-NADPH
# Description: Biological Example 3: Stability Test of the Compounds of the Present Invention in Human Liver Microsome
# The composition of the incubation system:
# (1) The liver microsome (20 mg protein/mL) was removed from the −80° C. refrigerator, pre-incubated in a 37° C. water bath constant temperature oscillator for 3 minutes, and thawed for use.
# (2) A mixed solution of the incubation system (excluding compound and β-NADPH) according to the above “composition of the incubation system” for the test was prepared, and pre-incubated in a 37° C. water bath constant temperature oscillator for 2 minutes.
# (3) Control group (excluding β-NADPH): 30 μL of water and 30 μL of compound working solution (concentration: 10 μM) were added to 240 μL of the mixed solution of the incubation system of step (2), and vortexed for 30 seconds to mix well. The total reaction volume was 300 μL. A duplicate sample was prepared. The sample was incubated in a 37° water bath constant temperature oscillator. The timing began and the sampling time points were set at 0 minute and 60 minutes.
# (4) Sample group: 70 μL β-NADPH solution (10 mM) and 70 μL compound working solution (concentration: 10 μM) were added to 560 μL of the mixed solution in step (2). The total reaction volume was 700 μL. The resulting mixture was vortexed for 30 seconds to mix well. A duplicate sample was prepared. The sample was incubated in a 37° C. water bath constant temperature oscillator. The timing began and the sampling time points were set at 0 minute, 5 minutes, 10 minutes, 20 minutes, 30 minutes, and 60 minutes after timing.
# (5) After vortexing for 3 minutes, the sample was centrifuged at 12000 rpm for 5 minutes.
# (6) 150 μL of water was added to 50 μL of the supernatant. The resulting mixture was evenly mixed in vortex, and the sample LC/MS/MS analysis was performed.
# MAO-B, sequence (P27338 whole entry): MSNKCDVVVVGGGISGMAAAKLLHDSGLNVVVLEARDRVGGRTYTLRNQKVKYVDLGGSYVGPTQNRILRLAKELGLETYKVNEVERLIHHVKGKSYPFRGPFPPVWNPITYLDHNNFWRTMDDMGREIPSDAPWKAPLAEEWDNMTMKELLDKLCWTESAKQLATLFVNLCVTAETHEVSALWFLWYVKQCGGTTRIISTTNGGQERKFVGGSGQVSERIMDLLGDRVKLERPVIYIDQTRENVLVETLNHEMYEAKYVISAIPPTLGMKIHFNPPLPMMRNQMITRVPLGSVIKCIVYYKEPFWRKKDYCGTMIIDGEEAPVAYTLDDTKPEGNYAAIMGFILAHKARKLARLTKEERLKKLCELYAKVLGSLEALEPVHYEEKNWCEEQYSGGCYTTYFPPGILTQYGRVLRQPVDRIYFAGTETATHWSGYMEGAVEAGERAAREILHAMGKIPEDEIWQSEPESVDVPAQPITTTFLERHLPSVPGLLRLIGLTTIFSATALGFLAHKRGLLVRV
compound,measurement,setting,value
"NC/C(=C\F)COc1ccc2c(c1)CCN(C1CC1)C2=O [Hydrochloride of Compound 5, (E)-6-((2-(aminomethyl)-3-fluoroallyl)oxy)-2-cyclopropyl-3,4-dihydroisoquinolin-1(2H)-one]",pIC50,MAO-B,5.20
same,Retention Rate,[1],98.6%
same,pIC50,rhVAP-1,7.74
same,pIC50,MAO-A,5.89
same,ClH,[2],4.63 mL/min/kg
